Each structure is given as a SMILES string.

In general, Ki refers to the dissociation constant of the complex between target and ligand, obtained from inhibition or displacement.

Format in all cases: biochemical
In experiment [1] the target is MMP-13h (Homo sapiens (Human), UniProt P45452). As to the kind of experiment: Inhibition constant (Ki) on MMP-13h. To be noted: read-out: Ki MMP-13h; human MMP-13. A digest of the protocol:
(§1)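 Readout is Ki, obtained with a literature enzymatic protocol; all enzymes tested were human.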

Experiment [2] deals with MMP-2h (Homo sapiens (Human), UniProt P08253). As to the kind of experiment: Inhibition constant (Ki) on MMP-2h. To be noted: read-out: Ki MMP-2h; human MMP-2. A digest of the protocol:
as §1

The target of experiment [3] is MMP-12h (Homo sapiens (Human), UniProt P39900). The experiment in a line: Inhibition constant (Ki) on MMP-12h. To be noted: read-out: Ki MMP-12h; human MMP-12.
The target of experiment [4] is MMP-9h (Homo sapiens (Human), UniProt P14780). As to the kind of experiment: Inhibition constant (Ki) on MMP-9h. As to conditions: read-out: Ki MMP-9h; human MMP-9. A digest of the protocol: as §1
Experiment [5] has as its target MMP-8h (Homo sapiens (Human), UniProt P22894). The experiment in a line: Inhibition constant (Ki) on MMP-8h. As to conditions: read-out: Ki MMP-8h; human MMP-8.
Experiment [6] addresses MMP-10h (Homo sapiens (Human), UniProt P09238). As to the kind of experiment: Inhibition constant (Ki) on MMP-10h. As to conditions: read-out: Ki MMP-10h; human MMP-10.
The target in experiment [7] is MMP-3h (Homo sapiens (Human), UniProt P08254). The experiment in a line: Inhibition constant (Ki) on MMP-3h. As to conditions: read-out: Ki MMP-3h; human MMP-3. A digest of the protocol: as §1
Experiment [8] addresses MMP-14h (Homo sapiens (Human), UniProt P50281). As to the kind of experiment: Inhibition constant (Ki) on MMP-14h. As to conditions: read-out: Ki MMP-14h; human MMP-14. A digest of the protocol:
as §1

MMP-10h, sequence (P09238 99-476): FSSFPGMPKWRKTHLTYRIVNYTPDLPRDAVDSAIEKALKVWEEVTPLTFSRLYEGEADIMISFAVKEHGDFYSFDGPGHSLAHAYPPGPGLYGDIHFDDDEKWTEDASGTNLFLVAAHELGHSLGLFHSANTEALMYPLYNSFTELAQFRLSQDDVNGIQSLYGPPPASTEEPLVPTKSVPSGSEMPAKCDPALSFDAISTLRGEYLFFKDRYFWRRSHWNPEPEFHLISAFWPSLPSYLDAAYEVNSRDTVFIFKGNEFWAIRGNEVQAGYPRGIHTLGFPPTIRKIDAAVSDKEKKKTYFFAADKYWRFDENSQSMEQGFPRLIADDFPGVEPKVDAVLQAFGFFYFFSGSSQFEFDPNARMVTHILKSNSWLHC
MMP-12h, sequence (P39900 106-470): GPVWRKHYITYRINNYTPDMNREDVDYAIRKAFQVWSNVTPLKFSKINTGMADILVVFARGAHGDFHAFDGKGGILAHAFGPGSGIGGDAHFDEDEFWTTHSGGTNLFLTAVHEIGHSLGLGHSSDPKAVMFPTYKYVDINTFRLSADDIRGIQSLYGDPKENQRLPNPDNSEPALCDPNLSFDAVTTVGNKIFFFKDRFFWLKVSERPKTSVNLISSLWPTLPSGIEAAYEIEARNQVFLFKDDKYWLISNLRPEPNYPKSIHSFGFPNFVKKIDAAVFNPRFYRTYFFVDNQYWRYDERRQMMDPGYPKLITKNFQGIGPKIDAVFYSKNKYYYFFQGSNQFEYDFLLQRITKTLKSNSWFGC
MMP-8h, sequence (P22894 101-467): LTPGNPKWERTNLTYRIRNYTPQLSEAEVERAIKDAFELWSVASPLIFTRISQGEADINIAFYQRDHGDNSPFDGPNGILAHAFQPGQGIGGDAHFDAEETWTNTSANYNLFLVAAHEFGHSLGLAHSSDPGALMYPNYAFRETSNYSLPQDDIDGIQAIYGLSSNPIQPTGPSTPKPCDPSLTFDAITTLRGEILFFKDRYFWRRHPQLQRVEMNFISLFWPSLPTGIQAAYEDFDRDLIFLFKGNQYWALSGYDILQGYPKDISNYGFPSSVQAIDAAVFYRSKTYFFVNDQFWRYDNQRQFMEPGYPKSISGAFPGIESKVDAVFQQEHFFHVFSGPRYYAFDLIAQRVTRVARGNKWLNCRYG
MMP-3h, sequence (P08254 100-477): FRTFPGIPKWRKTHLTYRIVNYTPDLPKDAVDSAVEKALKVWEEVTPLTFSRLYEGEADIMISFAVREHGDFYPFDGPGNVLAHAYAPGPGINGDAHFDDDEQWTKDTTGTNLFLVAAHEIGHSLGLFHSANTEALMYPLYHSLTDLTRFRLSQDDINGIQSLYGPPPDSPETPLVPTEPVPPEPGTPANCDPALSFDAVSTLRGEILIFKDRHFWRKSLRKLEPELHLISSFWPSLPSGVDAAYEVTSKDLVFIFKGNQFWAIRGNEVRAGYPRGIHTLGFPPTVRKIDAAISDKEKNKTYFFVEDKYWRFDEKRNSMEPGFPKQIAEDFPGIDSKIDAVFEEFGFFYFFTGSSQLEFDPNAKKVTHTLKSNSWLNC
MMP-9h, sequence (P14780 94-707): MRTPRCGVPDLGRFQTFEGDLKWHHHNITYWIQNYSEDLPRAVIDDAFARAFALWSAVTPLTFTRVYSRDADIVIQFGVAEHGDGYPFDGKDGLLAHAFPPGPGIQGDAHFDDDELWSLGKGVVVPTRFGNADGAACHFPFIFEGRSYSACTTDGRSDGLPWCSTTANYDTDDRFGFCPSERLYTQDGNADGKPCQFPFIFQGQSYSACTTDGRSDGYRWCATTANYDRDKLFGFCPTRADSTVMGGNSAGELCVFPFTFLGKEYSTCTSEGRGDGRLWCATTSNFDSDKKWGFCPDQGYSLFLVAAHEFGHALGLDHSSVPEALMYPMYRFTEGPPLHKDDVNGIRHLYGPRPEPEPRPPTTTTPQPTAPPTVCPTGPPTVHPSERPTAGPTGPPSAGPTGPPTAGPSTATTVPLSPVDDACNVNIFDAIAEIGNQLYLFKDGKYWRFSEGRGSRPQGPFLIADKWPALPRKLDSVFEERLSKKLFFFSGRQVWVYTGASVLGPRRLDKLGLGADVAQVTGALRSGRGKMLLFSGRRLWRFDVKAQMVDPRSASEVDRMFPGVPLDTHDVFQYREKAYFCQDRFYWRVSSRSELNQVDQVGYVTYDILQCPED
MMP-2h, sequence (P08253 110-660): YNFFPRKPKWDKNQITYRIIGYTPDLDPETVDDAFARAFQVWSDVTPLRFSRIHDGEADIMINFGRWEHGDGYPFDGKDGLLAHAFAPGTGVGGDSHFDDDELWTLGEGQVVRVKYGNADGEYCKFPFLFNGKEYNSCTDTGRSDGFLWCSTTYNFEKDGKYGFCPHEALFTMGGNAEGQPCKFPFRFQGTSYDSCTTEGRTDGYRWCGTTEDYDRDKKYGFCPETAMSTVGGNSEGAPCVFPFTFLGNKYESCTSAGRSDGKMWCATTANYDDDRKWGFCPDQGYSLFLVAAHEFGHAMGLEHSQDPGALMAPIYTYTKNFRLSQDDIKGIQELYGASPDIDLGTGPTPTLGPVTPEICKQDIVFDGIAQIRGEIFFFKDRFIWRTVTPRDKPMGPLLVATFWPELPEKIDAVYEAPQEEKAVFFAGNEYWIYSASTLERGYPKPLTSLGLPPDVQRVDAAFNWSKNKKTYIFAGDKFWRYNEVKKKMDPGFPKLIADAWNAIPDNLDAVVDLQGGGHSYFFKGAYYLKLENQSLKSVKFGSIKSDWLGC

In the case of `Cn1ccc(-c2ccc(CCC(=O)N[C@@H](CCC(=O)O)C(=O)N[C@@H](CCC(=O)O)C(N)=O)cc2)n1` [Compound 33, (S)-5-amino-4-((S)-4-carboxy-2-(3-(4-(1-methyl-1H-pyrazol-3-yl)phenyl)propanamido)butanamido)-5-oxopentanoic acid], the Ki in experiment [1] was 518 nM; in experiment [2] it was more than 1000 nM; in experiment [3] it was 797 nM; in experiment [4], more than 1000 nM; in experiment [5], more than 1000 nM; in experiment [6], more than 10000 nM. Also, the Ki in experiment [7] was more than 10000 nM; in experiment [8], more than 1000 nM.

`NC(=O)[C@H](CCCC(=O)O)NC(=O)[C@H](CCC(=O)O)NC(=O)CCc1cc(-c2ccc(-c3cccc(Cl)c3)cc2)no1` [Compound 12, (S)-6-amino-5-((S)-4-carboxy-2-(3-(3-(3′-chlorobiphenyl-4-yl)isoxazol-5-yl)propanamido)butanamido)-6-oxohexanoic acid]: the Ki in experiment [1] was 52 nM; in experiment [2], 150 nM; in experiment [3], 8.2 nM; in experiment [4], more than 1000 nM; in experiment [5], 452 nM; in experiment [6], 51 nM. Also, the Ki in experiment [7] was 129 nM; in experiment [8], more than 5000 nM.

As for `NC(=O)[C@H](CCC(=O)O)NC(=O)[C@H](CCC(=O)O)NC(=O)CCc1ccc(-c2cccc(O)c2)cc1` [Compound 54, (S)-5-amino-4-((S)-4-carboxy-2-(3-(3′-hydroxybiphenyl-4-yl)propanamido)butanamido)-5-oxopentanoic acid], the Ki in experiment [1] was more than 10000 nM; in experiment [2], more than 10000 nM; in experiment [3], 176 nM; in experiment [4], more than 1000 nM; in experiment [5], more than 1000 nM; in experiment [6], more than 1000 nM. Further, the inhibitory constant (Ki) in experiment [7] and in experiment [8] was more than 10000 nM throughout.

On to `NC(=O)[C@H](CCC(=O)O)NC(=O)[C@H](CCC(=O)O)NC(=O)CCc1ccc(-c2cccc(N)c2)cc1` [Compound 53, (S)-5-amino-4-((S)-2-(3-(3′-aminobiphenyl-4-yl)propanamido)-4-carboxybutanamido)-5-oxopentanoic acid], for which the Ki was more than 1000 nM in experiment [1]; more than 1000 nM in experiment [2]; 190 nM in experiment [3]; more than 1000 nM in experiment [4]; more than 1000 nM in experiment [5]; more than 1000 nM in experiment [6]. The Ki in experiment [7] and in experiment [8] was more than 1000 nM each time.

On to `NC(=O)CC[C@H](NC(=O)[C@H](CCC(N)=O)NC(=O)CCc1cc(-c2ccc(-c3ccccc3)cc2)no1)C(N)=O` [Compound 22, (S)-2-(3-(3-(biphenyl-4-yl)isoxazol-5-yl)propanamido)-N^1-((S)-1,5-diamino-1,5-dioxopentan-2-yl)pentanediamide], for which the Ki in experiment [1] was 436 nM; in experiment [2], more than 1000 nM; in experiment [3], 830 nM; in experiment [4], more than 1000 nM; in experiment [5], more than 1000 nM; in experiment [6], more than 10000 nM. In addition, the Ki in experiment [7] and in experiment [8] was more than 10000 nM each time.

Consider `NC(=O)[C@H](CC(=O)O)NC(=O)[C@H](CCC(=O)O)NC(=O)CCc1ccc(-c2ccc(-c3ccccc3)cc2)cc1` [Compound 64, (S)-5-((S)-1-amino-3-carboxy-1-oxopropan-2-ylamino)-4-(3-(4′-phenylbiphenyl-4-yl)propanamido)-5-oxopentanoic acid], for which the Ki in experiment [1] is 23 nM; in experiment [2], 55 nM; in experiment [3], 3.3 nM; in experiment [4], more than 1000 nM; in experiment [5], 287 nM; in experiment [6], 35 nM. In addition, the Ki is 168 nM in experiment [7] and more than 5000 nM in experiment [8].

The values are drawn from patent US8691753B2 (priority 2009, dated 2014).
